Legend:
[1] = molecular target: T1, Apolipoprotein L1 (Homo sapiens, UniProt O14791); test: Inhibition of wild type APOL1 containing G0 in human U2OS cells incubated for 80 mins by thallium flux based FLIPR assay; format: cell-based
T1 sequence (O14791 whole entry): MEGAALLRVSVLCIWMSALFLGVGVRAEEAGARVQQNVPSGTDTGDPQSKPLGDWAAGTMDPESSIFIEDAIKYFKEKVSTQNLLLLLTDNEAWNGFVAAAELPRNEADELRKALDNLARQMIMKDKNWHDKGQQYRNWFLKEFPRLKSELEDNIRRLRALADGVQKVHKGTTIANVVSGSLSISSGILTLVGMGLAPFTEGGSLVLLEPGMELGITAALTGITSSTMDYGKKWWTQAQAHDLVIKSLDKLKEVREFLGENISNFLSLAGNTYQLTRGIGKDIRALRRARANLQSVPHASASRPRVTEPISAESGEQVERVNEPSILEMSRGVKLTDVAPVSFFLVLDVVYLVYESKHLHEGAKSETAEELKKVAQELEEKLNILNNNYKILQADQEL

[2] = Inhibition of APOL1 isoform G2 variant in human U2OS cells incubated for 80 mins by thallium flux based FLIPR assay; format: cell-based

Row | SMILES | IC50 [1] [nM] | IC50 [2] [nM]
1 | O=C(CCc1cc(C2(C(F)(F)F)CC2)[nH]c1-c1ccc(Cl)cc1)N[C@@H]1C(=O)NC[C@H]1O | 2.51 | 3.98
2 | CC(C)(C)c1cc(CCC(=O)N[C@@H]2C(=O)NC[C@H]2O)c(-c2ccc(C(F)(F)F)cc2)[nH]1 | 1.58 | 5.01
3 | O=C(CCc1cc(-c2c(F)cc(F)cc2Cl)[nH]c1-c1ccc(Cl)cc1)N[C@@H]1C(=O)NC[C@H]1O | 0.501 | 0.794
4 | O=C(CCc1cc(C2(C(F)(F)F)CC2)[nH]c1-c1ccc(C(F)(F)F)cc1)N[C@@H]1C(=O)NC[C@H]1O | 2.51 | 5.01
5 | O=C(CCc1c(-c2ccc(Cl)cc2)[nH]c(C2(C(F)(F)F)CC2)c1F)N[C@@H]1C(=O)NC[C@H]1O | 2 | 5.01
6 | O=C(CCc1cc(-c2c(F)cc(F)cc2F)[nH]c1-c1ccc(Cl)cc1)N[C@@H]1C(=O)NC[C@H]1O | 3.16 | 3.98

— ChEMBL document CHEMBL5370694, “Novel Pyrrole Derivatives as Apolipoprotein L-1 Inhibitors for Treating Kidney Diseases and Sepsis” (ACS Med Chem Lett, 2023)
